“Also recorded” adds a separate entry of the source.
Legend:
hPSC-derived LB cells = assay: Hepatic progenitor specification from hPSC-derived LB cells (days 7-12), liver gene expression
Method: (§1) mTeSR1-grown hPSCs were cultured and differentiated as follows: • a) hPSCs cells were seeded at 1:12 as small clumps using Accutase (Millipore, Cat#SCR005) and Geltrex (Lifetech, Cat#A1413302). • b) Anterior Primitive Streak (day 1) was specified using Activin A (100 ng/ml), CHIR99021 (3 μM), PI-103 (50 nM) and Fgf2 (10 ng/ml) in serumless CDM2 basal medium for 24 hr. • c) Activin A (100 ng/ml) and DM3189 (250 nM) and PI-103 (50 nM) were added in the same basal medium for 24 hr to induce Definitive Endoderm (DE) (day 2). • d) DE was then patterned into PFG by using A83-01 (1 μM), RA (2 μM), BMP4 (30 ng/ml) and Fgf2 (10 ng/ml) in CDM KOSR basal media for another 24 hrs. • e) PFG was further differentiated to LB progenitors using Activin A (100 ng/ml), 8-bromo-CAMP (1 mM) and BMP4 (10 ng/ml) in CDM KOSR basal media for 3 days (day 4 to 6). • f) LB progenitors were treated with BMP4 (10 ng/ml), Oncostatin M (10 ng/ml), Dexamethasone ([…]), DAPT, C59 (1 μM) or RO4919097 (2 μM), forskolin ([…]), human recombinant insulin (10 μg/ml), ascorbic acid-2 phosphate (200 μg/ml), L-gluthathione ([…]) and amino acid concentrate and in IMDM/F12 media for the next 6 days (day 7 to 12) to induce hepatic progenitors. • g) Hepatic progenitors were treated with Dexamethasone (10 μM), RO4929097 (2 μM) or DAPT (10 μM), Forskolin (10 μM), human recombinant insulin (10 μg/ml), ascorbic acid-2 phosphate (200 μg/ml) in IMDM/F12 media for 6 days (day 13 to 18) to generate hepatocyte-like cells. Intra-Splenic Transplantation into FRG^−/− Mice
(§2) RNA was extracted using Zymo RNA extraction kit. RT-quantitative PCR was used to quantify gene expression. Primer sequences were designed by NCBI Primer Tool and primer specificity and linearity was tested before usage for gene expression analyses.
To identify the signals that regulate the progression of the LB progenitors from an ALB- to a more differentiated ALB+ state, multiple signaling pathways were systematically screened for their effects on ALB expression (including FGF, WNT, Notch, HGF, cAMP/PKA, TGFβ, and BMP).

PFG cells = assay: Liver bud (LB) specification from posterior foregut, days 4-6, gene expression; type: cell-based, human
Method: as §1, §2
The signaling pathways, including Retinoic, Nodal/Activin, Bmp, PKA, FGF and Wnt signaling, were explored to determine if they could directly regulate LB specification.

adult human hepatocytes = assay: Adult human primary hepatocytes in vitro culture, liver gene expression after 2 days; type: cell-based
Excerpt: RNA was extracted using Zymo RNA extraction kit. RT-quantitative PCR was used to quantify gene expression. […]
The signals that promote hepatocyte specification and/or maturation were considered to also ameliorate such loss of liver maturity and gene expression during in vitro culture. Thus, the signaling pathways that appear to be dysregulated were investigated including Notch, TGFb, Wnt, as well as other major signaling pathways including estrogen, BMP, FGF, PKA/cAMP pathways, in order to determine the effects on liver genes after 2 days.

hPSC-derived DE = assay: Foregut specification: treatment of hPSC-derived DE (day 3), downstream gene expression by RT-qPCR; type: cell-based, human
Excerpt: RT-quantitative PCR was used to quantify gene expression. […] During liver development, populations of definitive endoderm cells are first patterned along the anterior-posterior axis to form either the foregut or mid/hindgut. In the present invention the effects of signaling inhibition on the developmental competence of the foregut cells to give rise to the liver bud (LB) cells was examined. Competence is defined as the capacity of one stem cell or progenitor cell to differentiate into its daughter cell type. For example, the posterior foregut is competent when it could give rise to its daughter cell types such as the pancreatic endoderm and LB cells.

[1] = addition at the LB specification stage

## CCN(CC)CCCCNc1ncc2cc(-c3cc(OC)cc(OC)c3)c(NC(=O)NC(C)(C)C)nc2n1 [PD173074, N-[2-[[4-(Diethylamino)butyl]amino]-6-(3,5-dimethoxyphenyl)pyrido[2,3-d]pyrimidin-7-yl]-N′-(1,1-dimethylethyl)urea]
hPSC-derived LB cells; brief treatment of LB cells for 2 days
  subsequent expression of liver genes: higher

## O=C(NOC[C@H](O)CO)c1ccc(F)c(F)c1Nc1ccc(I)cc1F [PD0325901, N-[(2R)-2,3-Dihydroxypropoxy]-3,4-difluoro-2-[(2-fluoro-4-iodophenyl)amino]-benzamide]
PFG cells; inhibition of FGF/MAPK signaling
  LB gene expression (HNF1A, HNF6, PROX1, TBX3, HNF4A): reduced

## CC(C)(C(=O)NCC(F)(F)C(F)(F)F)C(=O)N[C@@H]1C(=O)Nc2ccccc2-c2ccccc21 [R04929097, Propanediamide, N1-[(7S)-6,7-dihydro-6-oxo-5H-dibenz[b,d]azepin-7-yl]-2,2-dimethyl-N3-(2,2,3,3,3-pentafluoropropyl)-]
hPSC-derived LB cells; Notch inhibition
  SOX9 expression: reducing
hPSC-derived LB cells; added to hPSC-derived LB cells
  ALB expression: enhance
Adult human hepatocytes
  expression of the majority of cytochrome enzymes (CYP1A1, CYP1A2, CYP2C19, CYP2C9, CYP2D6, CYP2E1, CYP3A4, CYP3A5, CYP3A7, CYP7A1): upregulated

## Nc1ncnc2c1ncn2[C@@H]1O[C@@H]2CO[P@@](O)(=S)O[C@H]2[C@H]1O [RpCAMP]
Adult human hepatocytes
  p450 cytochrome expression: promoted

## Cc1cccc(-c2[nH]c(C(C)(C)C)nc2-c2ccc3c(c2)OCO3)n1 [SB505124, 2-[4-(1,3-Benzodioxol-5-yl)-2-(1,1-dimethylethyl)-1H-imidazol-5-yl]-6-methyl-pyridine]
hPSC-derived LB cells
  competence of hepatic progenitors to generate hepatocyte-like cells: reduces
  expression of liver genes such as ALB, CYP3A4, CPS1, FAH, TAT, PAH, HGD, HPD and MAI: lower
hPSC-derived LB cells; brief treatment on days 7-8
  later functional liver gene expression of TAT, FAH, PAH, HGD, HPD, and MAI: higher
Adult human hepatocytes
  effect on the cytochrome expression compared with A83-01: stronger
  expression of CYP1A1, CYP1A2, CYP2C19, CYP2C9, CYP3A4, CYP3A5, CYP3A7 and CYP7A1: increased
PFG cells; treatment during LB specification, then hepatic specification medium
  subsequent expression of ALB: reduces

## C[N+](C)(C)CCO.[Cl-] [choline chloride]
hPSC-derived LB cells; higher levels of phospholipid precursor
  expression of ALB, FAH, PAH, TAT, CYP3A4, CYP3A7, AAT, THR, FBA, FBB, FBG and TBX3: increases

## Nc1ncnc2c1ncn2[C@@H]1O[C@@H]2COP(O)(=S)O[C@H]2[C@H]1O (stereo partly shown) [spCAMP]
Adult human hepatocytes
  periportal gene expression: promote
  perivenous gene expression (e.g. members of the CYP1, CYP2 and CYP3 families): reducing

## FGF2: activator of FGF signaling
hPSC-derived LB cells; 20 ng/ml
  ALB expression: reduction
  SOX9 expression: slightly increase
hPSC-derived LB cells; subtraction from BCDEFV cocktail, day 10
  ALB expression: inhibits
PFG cells
  expansion and self-renewal of LB progenitors: enhance
PFG cells; addition in CDM KOSR base media
  LB gene expression of HNF1A, HNF6, PROX1, TBX3, HNF4A, AFP, CEBPA, HNF1B: did not benefit
hPSC-derived DE; provided to DE cells during foregut specification
  subsequent liver bud gene expression of CEBPA, HNF1A, HNF6, PROX1: increase

## HGF: Hepatocyte growth factor
hPSC-derived LB cells; added to hPSC-derived LB cells
  ALB expression: promotes

## Wnt3A
Adult human hepatocytes
  perivenous xenobiotic gene expression (e.g. CYP3A4, CYP3A5 and CYP3A7): increased
PFG cells; [1]
  LB gene expression: higher
  expansion: promotes

B1: OSM: Oncostatin M (protein, UniProt P13725 26-221, looked up)
Oncostatin-M: AAIGSCSKEYRVLLGQLQKQTDLMQDTSRLLDPYIRIQGLDVPKLREHCRERPGAFPSEETLRGLGRRGFLQTLNATLGCVLHRLADLEQRLPKAQDLERSGLNIEDLEKLQMARPNILGLRNNIYCMAQLLDNSDTAEPTKAGRGASQPPTPTPASDAFQRKLEGCRFLHGYHRFMHSVGRVFSKWGESPNRSRR
hPSC-derived LB cells; added to hPSC-derived LB cells
  ALB expression: promoted

B2: BMP4: activator of BMP signaling (protein, UniProt P12644 293-408, looked up)
Bone morphogenetic protein 4: SPKHHSQRARKKNKNCRRHSLYVDFSDVGWNDWIVAPPGYQAFYCHGDCPFPLADHLNSTNHAIVQTLVNSVNSSIPKACCVPTELSAISMLYLDEYDKVVLKNYQEMVVEGCGCR
hPSC-derived LB cells; added to hPSC-derived LB cells
  ALB expression: promote; also recorded: increased
PFG cells
  LB specification: promotes
  dose that maximally induces expression of LB genes (HNF4A, PROX1, AFP, TBX3, HNF1B, HNF1A, HNF6, CEBPA): 30 to 40 ng/mL
  pancreatic specification: inhibited
hPSC-derived DE; treatment during foregut specification
  competence to generate LB cells: mildly enhanced
